From paper PMC10266688 (PLOS ONE, 2023)
Values joined by “and” are separate entries in the source; they are usually repeats but may differ in a detail not shown here. Equal entries are not always repeated.

Assays:
[1] = tested on: proteasome (4UbFL reporter); assay: 4UbFL reporter in ES2-4UbFL tumor and leg muscle of nude mice; assay type: in vivo, mouse; conditions: single IP dose Up284 20mg/kg or bortezomib 0.75 mg/kg, 4 h and 24 h
Protocol: (§1) A-C) Female nude mice were inoculated IP with ES2-luc cells, a human ovarian cancer line expressing luciferase. […] The IP tumor tissue and electroporated normal muscle tissue, being spatially distinct, were identified with separate regions of interest (ROI) after simultaneous imaging with IVIS.
Briefly mice were inoculated IP with ES2 cells stably expressing 4UbFL. After 48 h, the mice were injected with luciferin, imaged and then randomized into 3 groups (n = 5/group). Next, leg muscle of each mouse was electroporated with 4UbFL plasmid (considered as normal tissue). After 48 h (i.e. day 4) the mice were re-imaged and basal bioluminescence (0 h) was separately measured in the leg muscle and peritoneal ROIs.

[2] = tested on: panel of cancer cell lines; assay: MTT cytotoxicity, broad panel of cancer cell lines and normal cells (Fig 1B); conditions: 72 h
Neat solution stability = assay type: physicochemical; conditions: 10 μM, 37°C
Protocol: An incubation mixture with, and without NADPH-generating system, as well as a neat solution prepared without microsomes and NADPH-generating system was used. […] All reactions were initiated with the addition of Up284. Incubations were performed in glass tubes maintained at 37°C in a shaker bath. At 0, 30, and 60 minutes, 10 μL samples were withdrawn from the reaction mixture, and 0.5 mL of acetonitrile containing internal standard was added to each. Samples were vortex-mixed and subjected to centrifugation for 5 min at 1430 x g. A 10 μL aliquot of the supernatant was injected onto the LC-MS/MS instrument for qualitative analysis using a temperature-controlled autosampling device operating at 5°C.

[3] = Plasma Protein Binding (equilibrium dialysis); assay type: in vitro ADME, mouse
Protocol: The assay was performed in a multiple-use 96-well dialysis unit (HTD96b dialyzer). Each individual well unit consisted of 2 chambers separated by a vertically aligned dialysis membrane of predetermined pore size (MWCO 12–14 kDa). 120 μL of non-diluted plasma spiked with the compound (1 μM, final DMSO concentration 1%) was added to one chamber, and the same volume of PBS buffer pH 7.4 to the other chamber. The HTD96b dialyzer was covered with adhesive sealing film and incubated 5 h at 37°C while shaking at 100 rpm. For sample preparation, an aliquot of the contents of each chamber was mixed with the same volume of the blank opposite matrix. In order to define non-specific loss of the compound during this assay, a standard solution was created by mixing an aliquot of spiked plasma with blank buffer without dialysis. Two aliquots of the standard solution were incubated at 37°C, shaking at 100 rpm for 5 h (recovery samples). The other two aliquots were immediately diluted with acetonitrile and stored at 4°C until analysis (stability samples). All samples were diluted 5-fold with internal standard diluted in 100% methanol with subsequent plasma proteins sedimentation by centrifuging at 6000 rpm for 5 minutes. Supernatants were analyzed using LC-MS/MS. The percentage of plasma protein bound compound, recovery and stability were calculated using following equations.
Proteinbinding={(1−(arearatioinbuffer)/(arearatioinplasma)}.100%
Recovery={(arearatioinbuffer+peakareainplasma)/arearatioinrecoverysample}.100%
Stability={arearatioinrecoverysample/arearatioinstabilitysample}.100%

ES2 cells = assay: Reactive oxygen species, Amplex Red/HRP; conditions: 12 h
[4] = tested on: peritoneal/ovarian tumor (shp53, AKT, c-Myc); assay: Spontaneous genetically-engineered mouse model (GEMM) of ovarian cancer; assay type: in vivo; conditions: C57BL/6, 20mg/kg IP every 3 days for 6 weeks
Protocol: To induce IP tumor formation in immunocompetent mice, oncogenes (shp53, AKT, c-Myc), luciferase and the Sleeping Beauty (SB) transposase (10 μg/plasmid) were diluted in 500 μL of PBS and injected IP into female C57BL/6 mice. The mice were anesthetized by intramuscular injection of ketamine. The plasmid-injected mice were electroporated (EP) by the BTX ECM 830 square wave EP generator (BTX) (5 pulses, 200 V for 100 ms/pulse, 100 ms intervals between each pulse), the caliper electrode (BTX) was held on the waist of mouse. The mice were followed by IVIS imaging weekly for tracking tumor growth. The mice were sacrificed when the bioluminescence signal reached 10^9 photons/sec/cm^2/sr, or had enlarged abdomens due to the production of ascites, or had health conditions and/or criteria under which early euthanasia was required by the protocol (see above). To track peritoneal tumor growth, bioluminescence imaging was performed by the IVIS spectrum2000 (PerkinElmer) as the plasmid expressing SB transposase also produces luciferase. Briefly, the mice were injected IP with D-luciferin (GoldBio). After 10 min, the mice were anesthetized with isoflurane, and imaged by the IVIS Spectrum under the auto exposure mode. Bioluminescence in the peritoneal region was quantified as total photon counts/sec/cm^2/sr using Living Image 3.0 Software (Perkin Elmer).
as §1
GEMM better mimic the spontaneous development of cancers in an immune competent host than transplantable tumor lines. Twenty female C57BL/6 mice were co-injected IP with sleeping beauty vector and plasmids expressing carrying shp53, AKT, c-Myc and firefly luciferase genes, followed by electroporation (EP) to deliver these plasmid DNA into the peritoneal cavity cells wherein they integrate randomly into their genome. […]

[5] = mouse plasma, 1.0 µM, individual incubations

Structure (SMILES): N#Cc1ccc(/C=C2/C(=O)/C(=C/c3ccc(C#N)cc3)C23CCNCC3)cc1 [Up284]
- 4UbFL bioluminescence signal in muscle tissue vs tumor [1]: similarly enhanced the bioluminescence signal
- cytotoxicity against normal cells [2]: relatively spared normal cells
- sensitivity of HCT116 cells regardless of Tp53 status [2]: similarly sensitive
- sensitivity of RPMI8226 and ANBL6 and bortezomib-resistant (-V10R) lines [2]: similarly very sensitive
- % Drug Remaining, Neat Solution (Neat solution stability; 0 min): 100%
- % Drug Remaining, Neat Solution (Neat solution stability; 30 min): 86%
- % Drug Remaining, Neat Solution (Neat solution stability; 60 min): 78%
- % of bound compound, mean ([3]; mouse plasma, 1.0 µM): 98%
- Stability, % ([3]; mouse plasma, 1.0 µM, 5 h 37°C): 109%
- % of bound compound [3, 5]: 98% and 97%
- Recovery, % [3, 5]: 101%
- recovery at 5 h, 1 µM ([3]; mouse, non-diluted plasma, pH 7.4, mouse plasma, individual incubations): 98%
- reactive oxygen species (ES2 cells): elevated levels of reactive oxygen species
- ascites [4]: did not develop appreciable ascites
- GEMM tumor burden vs vehicle ([4]; p = 0.002): significantly reduced tumor burden
- survival vs vehicle ([4]; p = 0.06): trend for prolonged survival
